# Key:
# [1] = test system: CHO-K1+EA-NLS/NRS+GR-PL cells; experiment: EFC mitotic index assay, CHO-K1+EA-NLS/NRS+GR-PL cells, antibiotic selected pool (DX M19/GR pool); assay type: cell-based; settings: for Avg luminescence readout / R1 luminescence readout / R3 luminescence readout / Ratio (Avg vs 0 conc): 24 hours, 30 min read
# Method: (§1) In all experiments described, 20,000 cells/well were plated in a 96 well Corning clear bottom white plate in a total volume of 100 μL. The cells were treated for 24 hours with 5 μL of either the appropriate vehicle control or varying concentrations of the six compounds listed above. The next day, 100 μL of Tropix/ABI Gal screen cell lysis buffer/substrate mixture (24:1 ratio of component) was added to the cells/media and the plate was read on the Victor II luminescent plate reader at 30, 60 and 120 minutes after the lysis/substrate addition.
# (§2) The initial test of the cell cycle arresting compounds was performed on a double stable cell line having both of the constructs expressing the EA-NLS/NRS and GR-PL. (PL is β-galactosidase enzyme donor fragment and EA is the enzyme acceptor fragment available from DiscoveRx, Fremont, CA.). The parental line, C2C12 is derived from mouse muscle cells. In the experiments in which EA-NLS/NRS and GR-PL are expressed in the C2C12 parental cell line, the constructs were generated by subcloning the human GR sequence into a MFG-based retroviral vector that had been molecularly altered in a lab at Stanford. An MFG vector is described in U.S. Pat. No. 6,544,771. The EA-NLS/NRS fragment was subcloned into a wzl-based retroviral vector again molecularly altered in a lab at Stanford. In the experiments performed using a CHO-K1 parental cell line background the EA-NLS/NRS was subcloned into the Kpn I and Xba I sites of pcDNA3.1 Hygro vector from Invitrogen (catalog #V870-20). The plasmid was introduced into the cells via FuGene6 (Roche) transfection reagent. Cells were selected in the presence of 250 μg/mL of Hygromycin and single cell clones isolated that expressed the EA-NLS/NRS. The human GR gene was cloned by PCR and subcloned into the Xho I and Bam HI sites of the DiscoveRx vector-pCMV-myc-PL (C3). The plasmid was introduced into the selected EA-NLS/NRS expressing clone isolated above by FuGene 6 transfection. Another round of screening in the presence of 300-500 μg/mL of G418 was used to select GR-PL transfected clones. Clonal selection was performed to finally identify the clone that was used in these studies. In the studies using the CHO-K1+cyto-EA and cJUN-PL, the same Invitrogen pcDNA3.1 Hygro vector was used to express EA. In this case, the EA fragment was subcloned into the Kpn I/Not I sites of pcDNA3.1 Hygro. The plasmid DNA was introduced as described above using FuGene6 reagent. Cells were selected in the presence of 250 μg/mL of hygromycin and clonal selection was performed. The c-Jun gene was generated by PCR using an existing template copy of the gene and then subcloned into the Xho I/Bam HI sites of pCMV-PL-myc (C3).
# In the next experiment, an antibiotic selected pool population of CHO-K1 cells that express EA-NLS/NRS and GR-PL were tested with the same six set of cell cycle blocking compounds. […] FIGS. 2a and 2b show the immunofluorescence localization of EA and GR-PL in that the blue DAPI nuclear staining can be seen to be concentrated in the nucleus, while the green fluorescein stain on the antibody (from Abcam PLC) to the glucocorticoid receptor is seen in the cytoplasm. […] Again, six tables are presented one for each of the six drugs tested.
# This only occurs with compounds that block the cells in mitosis, allowing EA and ProLabel to complement.
# [2] = test system: C2C12+EA-NLS/NRS+GR-PL cells; experiment: EFC mitotic index assay, C2C12+EA-NLS/NRS+GR-PL cells (Stanford GR cells); assay type: cell-based, mouse; settings: for Avg luminescence readout / R1 luminescence readout / R3 luminescence readout / Ratio (Avg vs 0 conc): 24 hours, 30 min read
# Method: as §1, §2
# [3] = test system: CHO-K1+cyto-EA cells transfected with cJUN-PL; experiment: EFC mitotic index assay, CHO-K1+cyto-EA cells transiently transfected with cJUN-PL; assay type: cell-based; settings: for Avg luminescence readout / R1 luminescence readout / R3 luminescence readout / Ratio (Avg vs 0 conc): overnight
# Method: as §2
# To further test the concept of sequestering of one β-galactosidase enzyme fragment in the nucleus (in this case PL) while localizing the other component in the cytoplasm (in this case EA) the following experiment was carried out. […] The cyto-EA cells were transiently transfected with cJUN-PL plasmid DNA. Two days after the transfection, the cells were re-plated into a 96 well Corning white clear bottom multiwell plate at 20,000 cells/well. The cells were allowed to adhere overnight and the next day were treated with titrating concentrations of the six different cell cycle blocking compounds. The incubation was carried out overnight. The next day the media was removed from the cells and 100 μL of Tropix/ABI Gal screen cell lysis/substrate reagent was added to the cells.
smiles,measurement,setting,value
CC[C@]1(O)C[C@@H]2CN(CCc3c([nH]c4ccccc34)[C@@](C(=O)OC)(c3cc4c(cc3OC)N(C)[C@H]3[C@@](O)(C(=O)OC)[C@H](OC(C)=O)[C@]5(CC)C=CCN6CC[C@]43[C@@H]65)C2)C1 [Vinblastine],Avg luminescence readout,[1]; 1.0 μg/mL,4335
same,R1 luminescence readout,[1]; 1.0 μg/mL,4205
same,R3 luminescence readout,[1]; 1.0 μg/mL,4277
same,Ratio (Avg vs 0 conc),[1]; 1.0 μg/mL,1
same,Avg luminescence readout,[1]; 3.3 μg/mL,4345
same,R1 luminescence readout,[1]; 3.3 μg/mL,4410
same,R3 luminescence readout,[1]; 3.3 μg/mL,4436
same,Ratio (Avg vs 0 conc),[1]; 3.3 μg/mL,1
same,Avg luminescence readout,[1]; 10.0 μg/mL,4078
same,R1 luminescence readout,[1]; 10.0 μg/mL,3907
same,R3 luminescence readout,[1]; 10.0 μg/mL,4201
same,Ratio (Avg vs 0 conc),[1]; 10.0 μg/mL,1
same,Avg luminescence readout,[1]; 30.0 μg/mL,5919
same,R1 luminescence readout,[1]; 30.0 μg/mL,5161
same,R3 luminescence readout,[1]; 30.0 μg/mL,6583
same,Ratio (Avg vs 0 conc),[1]; 30.0 μg/mL,1
same,increase in EFC activity (in words),[2],no increase in EFC activity
same,Avg luminescence readout,[2]; 1.0 μg/mL,10744
same,R1 luminescence readout,[2]; 1.0 μg/mL,10417.0
same,R3 luminescence readout,[2]; 1.0 μg/mL,11042
same,Ratio (Avg vs 0 conc),[2]; 1.0 μg/mL,1
same,Avg luminescence readout,[2]; 3.3 μg/mL,12078
same,R1 luminescence readout,[2]; 3.3 μg/mL,10894.0
same,R3 luminescence readout,[2]; 3.3 μg/mL,13468
same,Ratio (Avg vs 0 conc),[2]; 3.3 μg/mL,1
same,Avg luminescence readout,[2]; 10.0 μg/mL,10751
same,R1 luminescence readout,[2]; 10.0 μg/mL,10269.0
same,R3 luminescence readout,[2]; 10.0 μg/mL,11281
same,Ratio (Avg vs 0 conc),[2]; 10.0 μg/mL,1
same,Avg luminescence readout,[2]; 30.0 μg/mL,10933
same,R1 luminescence readout,[2]; 30.0 μg/mL,10692.0
same,R3 luminescence readout,[2]; 30.0 μg/mL,11196
same,Ratio (Avg vs 0 conc),[2]; 30.0 μg/mL,1
NC(=O)NO [Hydroxyurea],Avg luminescence readout,[1]; 1.0 μg/mL,4562
same,R1 luminescence readout,[1]; 1.0 μg/mL,4403
same,R3 luminescence readout,[1]; 1.0 μg/mL,4740
same,Ratio (Avg vs 0 conc),[1]; 1.0 μg/mL,1
same,Avg luminescence readout,[1]; 3.3 μg/mL,4389
same,R1 luminescence readout,[1]; 3.3 μg/mL,4423
same,R3 luminescence readout,[1]; 3.3 μg/mL,4304
same,Ratio (Avg vs 0 conc),[1]; 3.3 μg/mL,1
same,Avg luminescence readout,[1]; 10.0 μg/mL,3959
same,R1 luminescence readout,[1]; 10.0 μg/mL,3865
same,R3 luminescence readout,[1]; 10.0 μg/mL,3897
same,Ratio (Avg vs 0 conc),[1]; 10.0 μg/mL,1
same,Avg luminescence readout,[1]; 30.0 μg/mL,3793
same,R1 luminescence readout,[1]; 30.0 μg/mL,3825
same,R3 luminescence readout,[1]; 30.0 μg/mL,3785
same,Ratio (Avg vs 0 conc),[1]; 30.0 μg/mL,1
same,increase in EFC activity (in words),[1]; overnight treatment,did not cause an increase in EFC activity
same,Avg luminescence readout,[3]; 3.0 μg/mL,7420
same,R1 luminescence readout,[3]; 3.0 μg/mL,7319
same,R3 luminescence readout,[3]; 3.0 μg/mL,6690
same,Ratio (Avg vs 0 conc),[3]; 3.0 μg/mL,1.2
same,Avg luminescence readout,[3]; 10.0 μg/mL,7634
same,R1 luminescence readout,[3]; 10.0 μg/mL,8237
same,R3 luminescence readout,[3]; 10.0 μg/mL,6699
same,Ratio (Avg vs 0 conc),[3]; 10.0 μg/mL,1.3
same,Avg luminescence readout,[3]; 30.0 μg/mL,6984
same,R1 luminescence readout,[3]; 30.0 μg/mL,7217
same,R3 luminescence readout,[3]; 30.0 μg/mL,6624
same,Ratio (Avg vs 0 conc),[3]; 30.0 μg/mL,1.2
same,Avg luminescence readout,[3]; 100.0 μg/mL,7742
same,R1 luminescence readout,[3]; 100.0 μg/mL,7955
same,R3 luminescence readout,[3]; 100.0 μg/mL,7483
same,Ratio (Avg vs 0 conc),[3]; 100.0 μg/mL,1.3
same,increase in EFC activity (in words),[3]; overnight incubation,negligible increase in EFC activity
same,Avg luminescence readout,[2]; 1.0 μg/mL,11689
same,R1 luminescence readout,[2]; 1.0 μg/mL,12080
same,R3 luminescence readout,[2]; 1.0 μg/mL,11424
same,Ratio (Avg vs 0 conc),[2]; 1.0 μg/mL,1
same,Avg luminescence readout,[2]; 3.3 μg/mL,11522
same,R1 luminescence readout,[2]; 3.3 μg/mL,12588
same,R3 luminescence readout,[2]; 3.3 μg/mL,11171
same,Ratio (Avg vs 0 conc),[2]; 3.3 μg/mL,1
same,Avg luminescence readout,[2]; 10.0 μg/mL,9211
same,R1 luminescence readout,[2]; 10.0 μg/mL,8813
same,R3 luminescence readout,[2]; 10.0 μg/mL,9419
same,Ratio (Avg vs 0 conc),[2]; 10.0 μg/mL,1
same,Avg luminescence readout,[2]; 30.0 μg/mL,7221
same,R1 luminescence readout,[2]; 30.0 μg/mL,7272
same,R3 luminescence readout,[2]; 30.0 μg/mL,7165
same,Ratio (Avg vs 0 conc),[2]; 30.0 μg/mL,1

# From patent publication US20070015232A1, “Mitotic index assay” (DiscoveRx, Inc., priority 2005, published 2007)
